Assay results from patent US11655221B2, “Certain (2S)-N-[(1S)-1-cyano-2-phenylethyl]-1,4-oxazepane-2-carboxamides as dipeptidyl peptidase 1 inhibitors” (AstraZeneca AB, priority 2014, dated 2023).

Legend:
[1] = Test B: In-vitro competitive aortic tissue binding assay; parameters: species or system rat; details: 100 μM test compound, competition with [14C]-labelled WO2010/128324 Ex. 3, categories strong binder, medium binder, no binder
Description: Test B: In-Vitro Competitive Aortic Tissue Binding Assay
Aortic homogenate was prepared from the thoracic aortae of Han Wistar rats. Freshly isolated to thoracic aortae were frozen, and later thawed and stripped of non-elastic material.
Homogenate concentration was adjusted to 30 mg/mL in Puck's saline, and aliquots were stored at −80° C. until use. Positive and negative control compounds and test compounds were made up to 100 mM in DMSO, and added to 1 mL aliquots of aortic homogenate in Puck's saline for a final concentration of 100 μM. Homogenate samples were pre-incubated with test compounds at 37° C., rotating, overnight. [^14C]4-Amino-N-[(1S)-1-cyano-2-(4′-cyanobiphenyl-4-yl)ethyl]tetrahydro-2H-pyran-4-carboxamide was then added to all samples to a final concentration of 100 μM, and samples were incubated at 37° C., rotating, for a further 2 h. Protein was precipitated from each sample by the addition of 10 mL acetone, pre-chilled to −20° C. Samples were left overnight at −20° C. to allow complete precipitation. Precipitate was pelleted by centrifugation at 4,500×g at 4° C. for 20 min, an aliquot of supernatant was removed for analysis, and the remainder of the supernatant discarded. Precipitate was washed by resuspension in 10 mL 80% methanol in distilled water, and re-pelleted by centrifugation at 4,500×g at 4° C. for 20 min. […] After final wash, precipitate was air-dried, and dissolved overnight in 1 mL NCSII Tissue Solubiliser. 1 mL aliquots of supernatants were added to 5 mL Ultima Gold scintillation fluid (Perkin Elmer, MA, U.S.A.), and 1 mL solubilised pellets were added to 5 mL Hionic-Fluor scintillation fluid (Perkin Elmer, Mass., U.S.A.). Radioactivity of samples was determined on a Beckman LS6500 multipurpose scintillation counter (Beckman Coulter, IN, U.S.A.). […] Duplicate samples were tested for each compound on each experimental occasion, and at least two experiments were run for each test compound. […] 1-way ANOVA and Bonferroni's multiple comparison tests were performed to calculate significance of differences from vehicle control.

[2] = Quantitative whole-body autoradiography (QWBA), aortic retention; assay type: in vivo
[3] = molecular target: recombinant human DPP1 (rhDPP1) (Homo sapiens (Human), UniProt P53634); assay: Test A1: Fluorescence assay for recombinant human (RH) DPP1; assay type: biochemical; details: Test A1, H-Gly-Arg-AMC substrate, 22° C. (Examples 1-35)
Description: Test A1: Fluorescence Assay for Recombinant Human (RH) DPP1
The activity of DPP1 was determined by measuring the enzymatic release of aminomethyl coumarin (AMC) from the peptide substrate (H-Gly-Arg-AMC), which leads to an increase in fluorescence intensity at λex=350 nm and λem=450 nm. The assay was carried out in black 384 well plates in a final volume of 50 μl at 22° C. The assay conditions contained the following: 25 mM piperazine buffer pH 5.0; 50 mM NaCl, 5 mM DTT; 0.01% (v/v) Triton X-100; 100 μM H-Gly-Arg-AMC and rhDPP1 (˜50 pM). […] Routinely, inhibitors were pre-incubated with rhDPP1 for 30-60 min prior to the addition of the peptide substrate to start the reaction for a further 60 min at 22° C.

Sequence of recombinant human DPP1 (rhDPP1) (P53634 231-394): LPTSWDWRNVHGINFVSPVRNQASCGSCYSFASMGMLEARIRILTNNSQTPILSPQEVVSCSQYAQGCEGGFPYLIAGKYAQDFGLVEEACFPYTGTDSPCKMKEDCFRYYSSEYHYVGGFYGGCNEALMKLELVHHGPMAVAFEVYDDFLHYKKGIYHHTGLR
Sequence of recombinant human DPP1 (rhDPP1) (P53634 25-143): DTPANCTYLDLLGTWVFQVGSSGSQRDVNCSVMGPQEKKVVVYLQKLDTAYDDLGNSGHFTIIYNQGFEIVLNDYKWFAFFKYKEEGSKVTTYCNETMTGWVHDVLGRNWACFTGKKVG
Sequence of recombinant human DPP1 (rhDPP1) (P53634 395-463): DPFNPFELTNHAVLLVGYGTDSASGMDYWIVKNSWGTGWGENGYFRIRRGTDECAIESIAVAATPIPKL

Compound | Aortic Tissue Binding [1] | aortic retention in rat QWBA studies [2] | DPP1 activity, pIC50 [3]
Cn1c(=O)oc2ccc(-c3ccc(C[C@@H](C#N)NC(=O)C4(N)CCOCC4)cc3)cc21 [WO2010/128324 (Example 17)] | Strong binder | – | –
N#Cc1ccc(-c2ccc(C[C@@H](C#N)NC(=O)[C@@H]3CCCCN3)cc2)cc1 [WO2009/074829 (Example 24)] | Binder | – | –
Cn1c(=O)oc2ccc(-c3ccc(C[C@@H](C#N)NC(=O)[C@@H]4CCCCN4)cc3)cc21 [WO2009/074829 (Example 96)] | Medium binder | – | –
Cn1c(=O)oc2ccc(-c3ccc(C[C@@H](C#N)NC(=O)[C@@H]4CNCCCO4)cc3)cc21 [Example 2, (2S)—N-{(1S)-1-Cyano-2-[4-(3-methyl-2-oxo-2,3-dihydro-1,3-benzoxazol-5-yl)phenyl]ethyl}-1,4-oxazepane-2-carboxamide] | No binder | – | –
N#Cc1ccc(-c2ccc(C[C@@H](C#N)NC(=O)C3(N)CCOCC3)cc2)cc1 [WO2010/128324 (Ex. 3), 4-amino-N-[(1S)-1-cyano-2-(4′-cyanobiphenyl-4-yl)ethyl]tetrahydro-2H-pyran-4-carboxamide] | Strong binder (reference) | high level of aortic retention | –
CN1C(=O)CNc2ccc(-c3ccc(C[C@@H](C#N)NC(=O)[C@@H]4CNCCCO4)cc3)cc21 [Example 35, (2S)—N-{(1S)-1-Cyano-2-[4-(4-methyl-3-oxo-1,2,3,4-tetrahydroquinoxalin-6-yl)phenyl]ethyl}-1,4-oxazepane-2-carboxamide] | – | – | 7.61
